Test results as given in US20240277689A1, “METHOD OF TREATING AN AUTOIMMUNE HEMATOLOGICAL DISORDER” (Novartis AG, priority 2021, published 2024).

Columns and labels:
AP activity (Wieslab) = test: First in human (FIH) studies: suppression of AP activity (Wieslab); format: in vivo
Protocol: In the FIH studies, there was rapid suppression of the AP activity (Wieslab) with approximately 80% or greater inhibition achieved at two hours post-dose for participants receiving single dose of 200 mg iptacopan. The suppression of the AP (80% or greater inhibition) was sustained over 14 days of dosing at 200 mg b.i.d. The exposure-response model developed with data from the FIH study with iptacopan in healthy volunteers predicts that a dose of about 200 mg b.i.d. would be needed to achieve >90% inhibition of the AP (Wieslab assay) in most participants. Preclinical studies supported acceptable safety margins for human exposure following 200 mg b.i.d. dosing.
Given the observed PK/PD profile in a first in human study in healthy volunteers, a 200 mg b.i.d dose of iptacopan is selected for this study.

[1] = test system: complement alternative pathway; conditions: multiple in vitro and in vivo non-clinical mechanistic studies; cited from earlier work

In the case of CCO[C@H]1CCN(Cc2c(OC)cc(C)c3[nH]ccc23)[C@H](c2ccc(C(=O)O)cc2)C1 [iptacopan, 4-((2S,4S)-(4-ethoxy-1-((5-methoxy-7-methyl-1H-indol-4-yl)methyl)piperidin-2-yl))benzoic acid], the “suppression of the AP (inhibition), sustained” value (AP activity (Wieslab); over 14 days of dosing at 200 mg b.i.d.) is listed as at least 80%, the “inhibition of AP activity (Wieslab)” value (AP activity (Wieslab); two hours post-dose, single dose of 200 mg, FIH participants) is listed as at least 80% and the “inhibition of the complement alternative pathway” value [1] is listed as “demonstrated inhibition of the complement alternative pathway”.
